Measured values: patent US20090275099A1 (priority 2004, published 2009)

Key:
F1F0-ATPase = F1F0-ATPase (Homo sapiens, UniProt P05496+P48047); assay: inhibition of the F1F0-ATPase (potencies stated in the description); assay type: biochemical
[1] = test system: Ramos clones transfected to overexpress Bcl-2; assay: antiproliferation, 72 h, 10% FBS; assay type: cell-based; conditions: Homo sapiens, Bcl-2, 72 h, read-out: ED50 for antiproliferation
Procedure: (§1) Like most 1,4-benzodiazepines, Bz-423 binds strongly to bovine serum albumin (BSA), which reduces the effective concentration of drug free in solution. For example, in tissue culture media containing 10% (v/v) fetal bovine serum (FBS), ca. 99% of the drug is bound to BSA. Therefore, cell culture cytotoxicity assays are conducted in media with 2% FBS to reduce binding to BSA and increase the free [Bz-423]. Under these conditions, the dose response-curve is quite sharp such that there is a limited concentration range at which Bz-423 is only partly effective. Since some benzodiazepines are known to have anti-proliferative properties, the effect of Bz-423 at concentrations <ED50 were carefully analyzed and observed that in addition to inducing apoptosis, Bz-423 prevented cell growth after 3 d in culture. In these low serum conditions, the cytotoxic and anti-proliferative effects overlapped making it difficult to study each effect independently. […] While higher amounts of drug may also block proliferation, it caused apoptosis well before the effects on proliferation could be observed.
(§2) To confirm the decrease in cell number relative to control cells after 3 d of treatment is due to decreased proliferation and not cell death balanced by proliferation, in addition to cell counting, cell divisions were studied. PKH-67 is a fluorescent probe that binds irreversibly to cell membranes and upon cell division is partitioned equally between the daughter cells, making it possible to quantify cell division by flow cytometry. Ramos cells stained with PKH67 and treated with Bz-423 had fewer cell divisions at sub-cytotoxic concentrations which confirmed that the decrease in cell number was due to anti-proliferative affects and not cell death. To determine if Bz-423 induced anti-proliferation was specific to Ramos cells, cell counting and cell cycle experiments were done in other B cell lines and cell lines derived from solid tumors.

[2] = test system: malignant B cell line CA46; assay: antiproliferation, 72 h, 10% FBS; assay type: cell-based; conditions: Homo sapiens, CA46, 72 h, read-out: ED50 for antiproliferation
Procedure: as §1, §2

[3] = test system: malignant B cell line Raji; assay: antiproliferation, 72 h, 10% FBS; assay type: cell-based; conditions: Homo sapiens, read-out: ED50 for antiproliferation
Procedure: as §1, §2

Ramos cells [4] = assay: cell culture cytotoxicity assays; assay type: cell-based, human; conditions: 10% FBS
Procedure: as §1, §2

Ramos B cells = assay: cell death of Ramos B cells, propidium iodide exclusion by flow cytometry, 24 h; assay type: cell-based, human; conditions: Homo sapiens, Ramos, 24 h; read-out: Cell death EC50 (μM), Ramos cells
[5] = test system: human skin in organ culture; assay: RA-induced epidermal hyperplasia in human skin organ culture; conditions: RA-exposed skin, Bz-423 5 μg/ml
Description: Replicate 2 mm full-thickness punch biopsies of sun-protected hip skin were obtained from young adult volunteers. The participation of human subjects in this project was approved by the University of Michigan Institutional Review Board, and all subjects provided written informed-consent prior to their inclusion in the study. Immediately upon biopsy, the tissue was immersed in culture medium consisting of Keratinocyte Basal Medium (KBM) (Cambrex Bioscience, Walkersville, Md.). KBM is a low-Ca^2+, serum-free modification of MCDB-153 medium optimized for high-density keratinocyte growth. It was supplemented with CaCl2 to bring the final Ca^2+ concentration to 1.4 mM. After transport to the laboratory on ice, the biopsies were incubated in a 24-well dish containing 250 μl of Ca^2+-supplemented KBM with or without additional treatments (e.g., RA and/or Bz-423). Cultures were incubated at 37° C. in an atmosphere of 95% air and 5% CO2. Other than to maintain the tissue in a minimal volume of medium, nothing further was done to ensure a strict air-liquid interface. Incubation was for 8 days, with change of medium and fresh treatments every second day. […] Average thickness values for untreated, retinoid exposed, and retinoid plus Bz-423-treated biopsies were determined. […]

Ramos cells [6] = assay: early O2− (ROS) response, 1 h; assay type: cell-based, human; conditions: Homo sapiens, Ramos, 1 h, read-out: ROS EC50 (μM), Ramos cells
Procedure: (§3) To detect O2^−, cells are incubated with DHE (10 μM) for 30 min at 37° C. and are analyzed by flow cytometry to measure ethidium fluorescence. Flow analysis of mitochondrial transmembrane potential (ψm) is conducted by labeling cells with DiOC6(3) (20 nM) for 15 min at 37 degrees C. A positive control for disruption of ψm is established using carbonyl cyanide m-chlorophenylhydrazone (CCCP, 50 μM). Caspase activation assays are performed with FAM-VAD-fluoromethylketone. Processing of the substrate is evaluated by flow cytometry.
(§4) Since an early mitochondrial superoxide (O2^−) mediates apoptosis induced by Bz-423, the O2^− response of cells 1 h following incubation with drug was examined, as well as cell death at 24 h, as previously described (see, e.g., Blatt, N. B., et al., 2002 J Clin Invest 110, 1123-1132; incorporated herein by reference in its entirety).

Jurkat cells [7] = assay: early O2− (ROS) response, 1 h; assay type: cell-based; conditions: Homo sapiens, Jurkat, 1 h, read-out: ROS EC50 (μM), Jurkat cells
Procedure: as §3, §4

Jurkat cells [8] = assay: cell death at 24 h; assay type: cell-based; conditions: Homo sapiens, Jurkat, 24 h, read-out: Cell death EC50 (μM), Jurkat cells
Procedure: as §4

Q: Which Ki (F1F0-ATPase) does the source give for `CN1C(=O)C(Cc2ccc3ccccc3c2)N=C(c2ccc(O)cc2)c2cc(Cl)ccc21` (centres unmarked) [Bz-423] here?
A: ~9 µM

Q: And the EC50 [1]?
A: 11.9 µM

Q: What about the EC50 [2] of the same compound?
A: 13.4 µM

Q: And the EC50 [3]?
A: 12.9 µM

Q: And the “amounts of drug with minimal cytotoxicity” value (Ramos cells [4])?
A: 10 to 15 µM

Q: What about the “concentrations at which only apoptosis was observed” value (Ramos cells [4]) of the same compound?
A: > 20 µM

Q: What about the EC50 (Ramos B cells) of the same compound?
A: 6.3 µM

Q: And the “histologic finding at high concentration” value [5]?
A: necrosis was observed

Q: What about the EC50 (Ramos cells [6]) of the same compound?
A: 7.3 µM

Q: What about the EC50 (Jurkat cells [7]) of the same compound?
A: 10 µM

Q: What about the EC50 (Jurkat cells [8]) of the same compound?
A: 6 µM
